# Patent US11344578B2, “Immune cells expressing engineered antigen receptors” (Board of Regents, The University of Texas System, priority 2017, dated 2022)
# Entries after “also recorded” stand apart in the source; their conditions may differ.
# What was measured:
# iC9/CS1/IL15+NK cells = assay: Inducible caspase-9 suicide gene test, annexin-V-7AAD staining; format: cell-based; settings: 10 nM CID AP20187 added to cultures
# Description: Because of concerns over autonomous, uncontrolled NK-cell growth due to autocrine production of IL-15, a suicide gene based on the inducible caspase-9 (IC9) gene was incorporated into the construct. To test the inducible caspase-9 suicide gene that was incorporated into the retroviral vector, 10 nM of CID AP20187 was added to cultures of iC9/CS1/IL15+NK cells. The AP20187 induced apoptosis/necrosis of transgenic cells within 4 hours as assessed by annexin-V-7AAD staining.
# Raji leukemic B cells = assay: Luciferase-expressing Raji NSG mouse model, in vivo bioluminescence imaging and survival; settings: effect of IL-15 in the construct
# Description: To determine the anti-leukemic effect of the CAR-transduced NK cells, they were infused into a “humanized” mouse model of lymphoblastic leukemia, the luciferase-expressing Raji NSG mouse model. To monitor the trafficking of CAR-CD191+CB-NK cells to tumor sites in vivo, the cells were labeled with the FFLuc vector, enabling monitoring by bioluminescence imaging. Engrafted mice received […] Raji leukemic B cells (2×10^6) injected intravenously and labeled with the RLuc vector to monitor tumor growth. Six to 10 days after tumor engraftment, mice were infused intravenously with 2×10^7 expanded CB-NK cells that were unmodified or CD19-CD28-zeta-2A-IL15 CB-NK cells labeled with FFLuc. All imaging was performed once a week for 3 weeks. Four groups of animals (n=10 per group) were studied, and the spleens, blood and lymph nodes of the mice were collected after they were euthanized.
# glucocorticoid receptor = assay: PCR based screening of glucocorticoid receptor knockout in hematopoietic cells; format: cell-based; settings: T cells and NK cells; CRISPR-CAS9; FIG. 3
# Description: To produce steroid-resistant immune cells, the CRISPR-CAS9 system was used to knockout glucocorticoid receptor in hematopoietic cells using gRNA SEQ ID NOs:1-2.
# TGFβ-RII = assay: CRISPR/CAS9 knockout of TGFβ-RII in CAR NK cells; format: cell-based; settings: Cas9 plus gRNA targeting Exon 3; FIG. 6A
# Description: Next, CRISPR-CAS9 was used to knockout TGFβ in CAR NK cells to render CAR NK cells resistant to the immunosuppressive effect of exogenous TGFβ. […] Wild type and TGF-β-RII knockout NK cells were treated with 10 ng/ml of recombinant TGF-β for 48 hrs and their response to K562 targets was assessed. […] TGFβ-RII knockout by CRISPR/CAS9 technology was also found to abrogate downstream Smad-2/3 phosphorylation in response to 10n g/ml of recombinant TGF-β compared to NK cells treated with CAS9 alone (FIG. 6C). Thus, CRISPR-CAS9-mediated knockout of TGFβ-RII renders NK cells resistant to TGFβ.
compound,measurement,setting,value
CC[C@H](C(=O)N1CCCC[C@H]1C(=O)O[C@H](CCc1ccc(OC)c(OC)c1)c1cccc(OCC(=O)NCC(CNC(=O)COc2cccc([C@@H](CCc3ccc(OC)c(OC)c3)OC(=O)[C@@H]3CCCCN3C(=O)[C@@H](CC)c3cc(OC)c(OC)c(OC)c3)c2)CN(C)C)c1)c1cc(OC)c(OC)c(OC)c1 [AP20187],time to apoptosis/necrosis of transgenic cells,iC9/CS1/IL15+NK cells,≤ 4 h
IL-15: interleukin-15 co-expressed from the CAR construct in NK cells,NK-CAR mediated killing of tumor,Raji leukemic B cells; FIG. 2A,enhances; also recorded: increase
same,survival,Raji leukemic B cells; FIG. 2B,prolong survival
"gRNA SEQ ID NOs:1-2: guide RNAs Ex3 NR3C1 sG1 and sG2 used with CAS9 to knock out glucocorticoid receptor (guide 1 TGCTGTTGAGGAGCTGGA; guide 2 AGCACACCAGGCAGAGTT; used with Cas9, further chemistry not given here)",glucocorticoid receptor knockout by PCR based screening,glucocorticoid receptor,efficient knockdown
"gRNA SEQ ID NOs:3-4: guide RNAs EX3 TGFBR2 sG1 and sG2 used with Cas9 to knock out TGFβ-RII (guide 1 CGGCTGAGGAGCGGAAGA; guide 2 TGGAGGTGAGCAATCCCC; used with Cas9, further chemistry not given here)",knockout of TGFβ-RII,TGFβ-RII,Successful knockout
